According to the CheMixHub viscosity set:
± gives the uncertainty stated by the source.

Assay: xn = mol fraction of the nth substance listed

COCCO + c1ccccc1
viscosity [mPa·s]
Settings | 298.15 K | 303.15 K | 308.15 K
101 kPa, x1 = 0.0543 | 0.624 ± 0.011 | – | 0.541 ± 0.01
101 kPa, x1 = 0.1499 | 0.669 ± 0.012 | – | 0.571 ± 0.011
101 kPa, x1 = 0.2235 | 0.708 ± 0.013 | – | 0.598 ± 0.011
101 kPa, x1 = 0.3508 | 0.788 ± 0.014 | – | 0.654 ± 0.012
101 kPa, x1 = 0.4496 | 0.862 ± 0.015 | – | 0.707 ± 0.013
101 kPa, x1 = 0.4961 | 0.902 ± 0.015 | – | 0.735 ± 0.013
101 kPa, x1 = 0.5462 | 0.947 ± 0.016 | – | 0.768 ± 0.013
101 kPa, x1 = 0.6455 | 1.049 ± 0.018 | – | 0.842 ± 0.015
101 kPa, x1 = 0.7524 | 1.18 ± 0.019 | – | 0.938 ± 0.016
101 kPa, x1 = 0.8509 | 1.323 ± 0.022 | – | 1.043 ± 0.018
101 kPa, x1 = 0.9558 | 1.505 ± 0.024 | – | 1.177 ± 0.02
101.33 kPa, x1 = 0.1174 | – | 0.599 ± 0.008 | –
101.33 kPa, x1 = 0.1933 | – | 0.628 ± 0.009 | –
101.33 kPa, x1 = 0.2642 | – | 0.659 ± 0.009 | –
101.33 kPa, x1 = 0.3837 | – | 0.728 ± 0.01 | –
101.33 kPa, x1 = 0.4988 | – | 0.807 ± 0.011 | –
101.33 kPa, x1 = 0.654 | – | 0.945 ± 0.012 | –
101.33 kPa, x1 = 0.7474 | – | 1.049 ± 0.013 | –
101.33 kPa, x1 = 0.843 | – | 1.188 ± 0.015 | –
101.33 kPa, x1 = 0.8998 | – | 1.246 ± 0.016 | –

CCCC(C)O (stereo not drawn) + CCCCCC
viscosity [mPa·s], 101.33 kPa
Settings | x1 = 0.1 | x1 = 0.2 | x1 = 0.3 | x1 = 0.4 | x1 = 0.5 | x1 = 0.6 | x1 = 0.7 | x1 = 0.8 | x1 = 0.9
303 K | 0.28 ± 0.007 | 0.31 ± 0.008 | 0.382 ± 0.01 | 0.537 ± 0.014 | 0.682 ± 0.017 | 0.878 ± 0.022 | 1.228 ± 0.031 | 1.588 ± 0.041 | 1.965 ± 0.051
313 K | 0.249 ± 0.006 | 0.277 ± 0.007 | 0.36 ± 0.009 | 0.44 ± 0.011 | 0.544 ± 0.014 | 0.802 ± 0.02 | 0.967 ± 0.025 | 1.21 ± 0.031 | 1.484 ± 0.038
323 K | 0.228 ± 0.006 | 0.254 ± 0.006 | 0.31 ± 0.008 | 0.385 ± 0.01 | 0.472 ± 0.012 | 0.634 ± 0.016 | 0.805 ± 0.02 | 0.981 ± 0.025 | 1.138 ± 0.029

COCCO + CCC(C)=O
viscosity [mPa·s]
Settings | 298.15 K | 308.15 K | 318.15 K
101 kPa, x2 = 0.1049 | 1.321 ± 0.009 | – | –
101 kPa, x2 = 0.2087 | 1.113 ± 0.008 | – | –
101 kPa, x2 = 0.3115 | 0.937 ± 0.007 | – | –
101 kPa, x2 = 0.413 | 0.78 ± 0.005 | – | –
101 kPa, x2 = 0.5135 | 0.64 ± 0.005 | – | –
101 kPa, x2 = 0.6128 | 0.525 ± 0.004 | – | –
101 kPa, x2 = 0.7112 | 0.464 ± 0.003 | – | –
101 kPa, x2 = 0.8085 | 0.43 ± 0.003 | – | –
101 kPa, x2 = 0.9047 | 0.41 ± 0.003 | – | –
101.33 kPa, x1 = 0.1014 | 0.423 ± 0.004 | 0.378 ± 0.004 | 0.339 ± 0.003
101.33 kPa, x1 = 0.2118 | 0.474 ± 0.004 | 0.419 ± 0.004 | 0.373 ± 0.004
101.33 kPa, x1 = 0.3001 | 0.53 ± 0.005 | 0.469 ± 0.004 | 0.418 ± 0.004
101.33 kPa, x1 = 0.3864 | 0.591 ± 0.005 | 0.521 ± 0.005 | 0.463 ± 0.004
101.33 kPa, x1 = 0.4984 | 0.695 ± 0.006 | 0.607 ± 0.005 | 0.534 ± 0.005
101.33 kPa, x1 = 0.601 | 0.805 ± 0.007 | 0.696 ± 0.006 | 0.607 ± 0.005
101.33 kPa, x1 = 0.695 | 0.938 ± 0.008 | 0.802 ± 0.007 | 0.692 ± 0.006
101.33 kPa, x1 = 0.8004 | 1.12 ± 0.01 | 0.945 ± 0.008 | 0.803 ± 0.007
101.33 kPa, x1 = 0.9019 | 1.334 ± 0.012 | 1.108 ± 0.01 | 0.931 ± 0.008

CC(=O)OC(C)C + c1ccccc1
308.15 K, 101 kPa
Settings | viscosity [mPa·s]
x2 = 0.0634 | 0.4362 ± 0.0096
x2 = 0.2053 | 0.4409 ± 0.0097
x2 = 0.3085 | 0.4455 ± 0.0097
x2 = 0.4037 | 0.4502 ± 0.0098
x2 = 0.5044 | 0.4564 ± 0.0098
x2 = 0.6051 | 0.4587 ± 0.0099
x2 = 0.6985 | 0.4735 ± 0.01
x2 = 0.8005 | 0.4854 ± 0.01
x2 = 0.9366 | 0.502 ± 0.01
